In the supplement of paper PMC10307832:

How the values were obtained:
Assay in all cases: relative viability (nuclei count vs DMSO), 5 days (fraction); higher = more cells survive
[1] = compound: Cc1ccc2nc(NCCN)c3ncc(C)n3c2c1 + CC(C)C[C@H](NC(=O)[C@H](Cc1ccccc1)NC(=O)c1cnccn1)B(O)O [Bortezomib] (partner 0.002 µM)
Method in brief: (§1)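 Lung cancer cell lines in 1536-well plates were dosed by pin tool the day after seeding, either with one drug alone or with a fixed anchor-drug dose plus five library-drug doses (not always all listed) in √10 steps. After 5 days, cells were fixed and their nuclei stained in one step (final 0.05% Triton X-100, 1% formaldehyde, 1 ug/ml Hoechst), then counted on 4× images. Relative viability is the nuclei count in treated wells divided by that in vehicle wells. Values are medians of duplicate plates.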

Salubrinal + Phenformin = compound: O=C(/C=C/c1ccccc1)NC(NC(=S)Nc1cccc2cccnc12)C(Cl)(Cl)Cl [Salubrinal] + N=C(N)NC(=N)NCCc1ccccc1 [Phenformin] (partner 250 µM)
Method in brief: as §1

[2] = compound: Cc1ccc2nc(NCCN)c3ncc(C)n3c2c1 + CC1(C)CCC(c2ccc(Cl)cc2)=C(CN2CCN(c3ccc(C(=O)NS(=O)(=O)c4ccc(N[C@H](CCN5CCOCC5)CSc5ccccc5)c(S(=O)(=O)C(F)(F)F)c4)cc3)CC2)C1 [Navitoclax] (partner 0.5 µM)
Method in brief: as §1

[3] = compound: Cc1ccc2nc(NCCN)c3ncc(C)n3c2c1 + Nc1nc2[nH]cc(CCc3ccc(C(=O)N[C@@H](CCC(=O)O)C(=O)O)cc3)c2c(=O)[nH]1 [Pemetrexed] (partner 0.2 µM)
Method in brief: as §1

## LC-2-ad
[1]; first compound 0.04 µM
  relative viability: 1.06
[1]; first compound 0.1265 µM
  relative viability: 0.978
[1]; first compound 0.4 µM
  relative viability: 1
[1]; first compound 1.265 µM
  relative viability: 1.02
[1]; first compound 4 µM
  relative viability: 0.81
Salubrinal + Phenformin; first compound 0.08 µM
  relative viability: 0.65
Salubrinal + Phenformin; first compound 0.253 µM
  relative viability: 0.609
Salubrinal + Phenformin; first compound 0.8 µM
  relative viability: 0.744
Salubrinal + Phenformin; first compound 2.53 µM
  relative viability: 0.621
Salubrinal + Phenformin; first compound 8 µM
  relative viability: 0.596
[2]; first compound 0.04 µM
  relative viability: 0.404
[2]; first compound 0.1265 µM
  relative viability: 0.431
[2]; first compound 0.4 µM
  relative viability: 0.491
[2]; first compound 1.265 µM
  relative viability: 0.526
[2]; first compound 4 µM
  relative viability: 0.508
[3]; first compound 0.04 µM
  relative viability: 0.303
[3]; first compound 0.1265 µM
  relative viability: 0.276
[3]; first compound 0.4 µM
  relative viability: 0.268
[3]; first compound 1.265 µM
  relative viability: 0.275
[3]; first compound 4 µM
  relative viability: 0.291

## LCLC-97TM1
[1]; first compound 0.04 µM
  relative viability: 0.846
[1]; first compound 0.1265 µM
  relative viability: 0.614
[1]; first compound 0.4 µM
  relative viability: 0.767
[1]; first compound 1.265 µM
  relative viability: 0.937
[1]; first compound 4 µM
  relative viability: 0.585
Salubrinal + Phenformin; first compound 0.08 µM
  relative viability: 0.388
Salubrinal + Phenformin; first compound 0.253 µM
  relative viability: 0.413
Salubrinal + Phenformin; first compound 0.8 µM
  relative viability: 0.435
Salubrinal + Phenformin; first compound 2.53 µM
  relative viability: 0.462
Salubrinal + Phenformin; first compound 8 µM
  relative viability: 0.488
[2]; first compound 0.04 µM
  relative viability: 0.57
[2]; first compound 0.1265 µM
  relative viability: 0.444
[2]; first compound 0.4 µM
  relative viability: 0.39
[2]; first compound 1.265 µM
  relative viability: 0.392
[2]; first compound 4 µM
  relative viability: 0.487
[3]; first compound 0.04 µM
  relative viability: 0.171
[3]; first compound 0.1265 µM
  relative viability: 0.178
[3]; first compound 0.4 µM
  relative viability: 0.211
[3]; first compound 1.265 µM
  relative viability: 0.175
[3]; first compound 4 µM
  relative viability: 0.145

## LOU-NH91
[1]; first compound 0.04 µM
  relative viability: 0.494
[1]; first compound 0.1265 µM
  relative viability: 0.587
[1]; first compound 0.4 µM
  relative viability: 0.556
[1]; first compound 1.265 µM
  relative viability: 0.529
[1]; first compound 4 µM
  relative viability: 0.423
Salubrinal + Phenformin; first compound 0.08 µM
  relative viability: 0.813
Salubrinal + Phenformin; first compound 0.253 µM
  relative viability: 0.693
Salubrinal + Phenformin; first compound 0.8 µM
  relative viability: 0.739
Salubrinal + Phenformin; first compound 2.53 µM
  relative viability: 0.583
Salubrinal + Phenformin; first compound 8 µM
  relative viability: 0.663
[2]; first compound 0.04 µM
  relative viability: 0.684
[2]; first compound 0.1265 µM
  relative viability: 0.687
[2]; first compound 0.4 µM
  relative viability: 0.724
[2]; first compound 1.265 µM
  relative viability: 0.672
[2]; first compound 4 µM
  relative viability: 0.65
[3]; first compound 0.04 µM
  relative viability: 0.411
[3]; first compound 0.1265 µM
  relative viability: 0.344
[3]; first compound 0.4 µM
  relative viability: 0.361
[3]; first compound 1.265 µM
  relative viability: 0.465
[3]; first compound 4 µM
  relative viability: 0.495

## LU99A
[1]; first compound 0.04 µM
  relative viability: 1.26
[1]; first compound 0.1265 µM
  relative viability: 1.08
[1]; first compound 0.4 µM
  relative viability: 1.07
[1]; first compound 1.265 µM
  relative viability: 1.2
[1]; first compound 4 µM
  relative viability: 1
Salubrinal + Phenformin; first compound 0.08 µM
  relative viability: 0.921
Salubrinal + Phenformin; first compound 0.253 µM
  relative viability: 0.916
Salubrinal + Phenformin; first compound 0.8 µM
  relative viability: 0.992
Salubrinal + Phenformin; first compound 2.53 µM
  relative viability: 0.906
Salubrinal + Phenformin; first compound 8 µM
  relative viability: 0.896
[2]; first compound 0.04 µM
  relative viability: 0.784
[2]; first compound 0.1265 µM
  relative viability: 0.822
[2]; first compound 0.4 µM
  relative viability: 0.761
[2]; first compound 1.265 µM
  relative viability: 0.883
[2]; first compound 4 µM
  relative viability: 0.782
[3]; first compound 0.04 µM
  relative viability: 0.165
[3]; first compound 0.1265 µM
  relative viability: 0.209
[3]; first compound 0.4 µM
  relative viability: 0.208
[3]; first compound 1.265 µM
  relative viability: 0.188
[3]; first compound 4 µM
  relative viability: 0.209

## LXF-289
[1]; first compound 0.04 µM
  relative viability: 1.01
[1]; first compound 0.1265 µM
  relative viability: 0.97
[1]; first compound 0.4 µM
  relative viability: 0.987
[1]; first compound 1.265 µM
  relative viability: 0.984
[1]; first compound 4 µM
  relative viability: 0.994
Salubrinal + Phenformin; first compound 0.08 µM
  relative viability: 0.542
Salubrinal + Phenformin; first compound 0.253 µM
  relative viability: 0.451
Salubrinal + Phenformin; first compound 0.8 µM
  relative viability: 0.555
Salubrinal + Phenformin; first compound 2.53 µM
  relative viability: 0.504
Salubrinal + Phenformin; first compound 8 µM
  relative viability: 0.502
[2]; first compound 0.04 µM
  relative viability: 0.946
[2]; first compound 0.1265 µM
  relative viability: 0.909
[2]; first compound 0.4 µM
  relative viability: 0.936
[2]; first compound 1.265 µM
  relative viability: 0.922
[2]; first compound 4 µM
  relative viability: 0.952
[3]; first compound 0.04 µM
  relative viability: 0.905
[3]; first compound 0.1265 µM
  relative viability: 0.876
[3]; first compound 0.4 µM
  relative viability: 0.87
[3]; first compound 1.265 µM
  relative viability: 0.865
[3]; first compound 4 µM
  relative viability: 0.933

## NCI-H23
[1]; first compound 0.04 µM
  relative viability: 1.12
[1]; first compound 0.1265 µM
  relative viability: 1.03
[1]; first compound 0.4 µM
  relative viability: 1.08
[1]; first compound 1.265 µM
  relative viability: 1.02
[1]; first compound 4 µM
  relative viability: 0.672
Salubrinal + Phenformin; first compound 0.08 µM
  relative viability: 0.84
Salubrinal + Phenformin; first compound 0.253 µM
  relative viability: 0.939
Salubrinal + Phenformin; first compound 0.8 µM
  relative viability: 0.8
Salubrinal + Phenformin; first compound 2.53 µM
  relative viability: 0.748
Salubrinal + Phenformin; first compound 8 µM
  relative viability: 0.814
[2]; first compound 0.04 µM
  relative viability: 0.867
[2]; first compound 0.1265 µM
  relative viability: 0.904
[2]; first compound 0.4 µM
  relative viability: 0.822
[2]; first compound 1.265 µM
  relative viability: 0.791
[2]; first compound 4 µM
  relative viability: 0.814
[3]; first compound 0.04 µM
  relative viability: 0.666
[3]; first compound 0.1265 µM
  relative viability: 0.691
[3]; first compound 0.4 µM
  relative viability: 0.741
[3]; first compound 1.265 µM
  relative viability: 0.641
[3]; first compound 4 µM
  relative viability: 0.581

## NCI-H322M
[1]; first compound 0.04 µM
  relative viability: 1.29
[1]; first compound 0.1265 µM
  relative viability: 1.1
[1]; first compound 0.4 µM
  relative viability: 1.24
[1]; first compound 1.265 µM
  relative viability: 1.18
[1]; first compound 4 µM
  relative viability: 1.27
Salubrinal + Phenformin; first compound 0.08 µM
  relative viability: 0.783
Salubrinal + Phenformin; first compound 0.253 µM
  relative viability: 0.725
Salubrinal + Phenformin; first compound 0.8 µM
  relative viability: 0.929
Salubrinal + Phenformin; first compound 2.53 µM
  relative viability: 0.769
Salubrinal + Phenformin; first compound 8 µM
  relative viability: 0.678
[2]; first compound 0.04 µM
  relative viability: 1.15
[2]; first compound 0.1265 µM
  relative viability: 1.16
[2]; first compound 0.4 µM
  relative viability: 1.19
[2]; first compound 1.265 µM
  relative viability: 1.25
[2]; first compound 4 µM
  relative viability: 1.22
[3]; first compound 0.04 µM
  relative viability: 0.654
[3]; first compound 0.1265 µM
  relative viability: 0.621
[3]; first compound 0.4 µM
  relative viability: 0.62
[3]; first compound 1.265 µM
  relative viability: 0.634
[3]; first compound 4 µM
  relative viability: 0.647

## NCI-H441
[1]; first compound 0.04 µM
  relative viability: 0.72
[1]; first compound 0.1265 µM
  relative viability: 0.463
[1]; first compound 0.4 µM
  relative viability: 0.423
[1]; first compound 1.265 µM
  relative viability: 0.533
[1]; first compound 4 µM
  relative viability: 0.438
Salubrinal + Phenformin; first compound 0.08 µM
  relative viability: 0.939
Salubrinal + Phenformin; first compound 0.253 µM
  relative viability: 0.855
Salubrinal + Phenformin; first compound 0.8 µM
  relative viability: 0.892
Salubrinal + Phenformin; first compound 2.53 µM
  relative viability: 0.755
Salubrinal + Phenformin; first compound 8 µM
  relative viability: 0.72
[2]; first compound 0.04 µM
  relative viability: 0.56
[2]; first compound 0.1265 µM
  relative viability: 0.684
[2]; first compound 0.4 µM
  relative viability: 1.03
[2]; first compound 1.265 µM
  relative viability: 0.401
[2]; first compound 4 µM
  relative viability: 0.635
[3]; first compound 0.04 µM
  relative viability: 0.301
[3]; first compound 0.1265 µM
  relative viability: 0.288
[3]; first compound 0.4 µM
  relative viability: 0.269
[3]; first compound 1.265 µM
  relative viability: 0.268
[3]; first compound 4 µM
  relative viability: 0.261
